Results published in US6127340A, “Serine protease inhibitors” (Trigen Limited, priority 1995, dated 2000).
pKi: −log10 of the molar value. Where two headings read alike, the source gives them in different places.

Assays:
human α-thrombin = human α-thrombin (Homo sapiens, UniProt P00734); assay: Determination of Ki: inhibition of human α-thrombin catalysed hydrolysis of chromogenic substrate S-2238; type: biochemical
Method: The inhibition of human α-thrombin was determined by the inhibition of the enzyme catalysed hydrolysis of three different concentrations of the chromogenic substrate S-2238.
200 μl of sample or buffer and 50 μl of S-2238 were incubated at 37° C. for 1 min and 50 μl of human α-thrombin (0.25 NIH μ/ml) was added. The initial rate of inhibited and uninhibited reactions were recorded at […]. The increase in optical density was plotted according to the method of Lineweaver and Burke. The Km and apparent Km were determined and Ki was calculated using the relationship. [formula]
The buffer used contained 0.1M sodium phosphate, 0.2M NaCl, 0.5% PEG and 0.02% sodium azide, adjusted to pH 7.5 with orthophosphoric acid.
The samples consist of the compound dissolved in DMSO.
The reader is referred to Dixon, M and Webb, E. C., "Enzymes", third edition, 1979, Academic Press, the disclosure of which is incorporated herein by reference, for a further description of the measurement of Ki.

elastase = assay: Inhibition constant (Ki) against elastase; type: biochemical
[1] = Table 4, 37° C., substrate S-2238
[2] = Table 5, Ki against elastase, 37° C., read-out: Ela
[3] = Table 6, comparative with prior art compounds, unit inferred, read-out: Ki(elastase)
[4] = Table 6, comparative with prior art compounds, unit inferred

Compound | pKi (human α-thrombin; [1]) | further results
CCOP(=O)(OCC)C(OC(=O)C1CCCN1C(=O)C(NC(=O)OCc1ccccc1)C(c1ccccc1)c1ccccc1)c1ccc([N+](=O)[O-])cc1 (racemic) [Example 239, Cbz-DL-Dpa-Pro-CO2 pNO2Phg^P (OEt)2] | 5.21 | 
CCOP(=O)(OCC)C(OC(=O)[C@@H]1CCCN1C(=O)C(NC(=O)OCc1ccccc1)C(c1ccccc1)c1ccccc1)c1ccccc1 (mixture of isomers) [Example 264, Cbz-DL-Dpa-Pro.psi.(CO2)Phg^P (OEt)2] | 4.80 | 
CC(C)C(OC(=O)C1CCCN1C(=O)C(NC(=O)OCc1ccccc1)C(c1ccccc1)c1ccccc1)B1OC2CC3CC(C3(C)C)C2(C)O1 [Example 87, Benzyloxycarbonyl-D,L-diphenylalanylprolyl-.psi.(CO2)-borovaline pinanediol ester] | 4.74 | pKi (elastase; [2]): 4.26
CCC(OC(=O)C1CCCN1C(=O)C(NC(=O)OCc1ccccc1)C(c1ccccc1)c1ccccc1)B1OC2CC3CC(C3(C)C)C2(C)O1 [Example 90, Cbz-D,L-Dpa-Pro-.psi.(CO2)-1-propyl-1-boronate pinanediol] | 6.61 | pKi (elastase; [2]): 5.35
CC1(C)C2CC3OB(C(Cc4ccccc4)OC(=O)C4CCCN4C(=O)[C@H](NC(=O)OCc4ccccc4)C(c4ccccc4)c4ccccc4)OC3(C)C1C2 (stereo partly drawn) [Example 91, Cbz-D-Dpa-Pro-.psi.(CO2)-boroPhe pinanediol] | 7.41 | 
CC1(C)C2CC3OB(C(OC(=O)C4CCCN4C(=O)[C@@H](Cc4ccccc4)NC(=O)OCc4ccccc4)c4ccccc4)OC3(C)C1C2 (stereo partly drawn) [Example 100, Cbz-D-Phe-Pro-.psi.(CO2)-boroPgl pinanediol] | 7.06 | 
CC1(C)C2CC3OB(C(OC(=O)C4CCCN4C(=O)C(NC(=O)OCc4ccccc4)C(c4ccccc4)c4ccccc4)c4ccccc4)OC3(C)C1C2 [Example 101, Cbz-D,L-Dpa-Pro-.psi.(CO2)-BoroPgl pinanediol] | 6.88 | 
CC(C)C(NC(=O)C1CCCN1C(=O)C(NC(=O)OCc1ccccc1)C(c1ccccc1)c1ccccc1)B1OC(C)(C)C(C)(C)O1 [Z-D-Dpa-Pro-BoroVal-OPin, reference compound] |  | pKi (elastase; [3]): < 4.15
Cbz-D,L-Dpa-Pro-(CO2)boroPhe-OPin [Example 89] | 7.41 | 
Cbz-D-Dpa-Pro-.psi.(CO2)-GlyP(-)OPin [Example 177] | 4.86 | 
Cbz-D-Dpa-Pro-.psi.(COCH2)BoroHpg(-)OPin [Example 270] | 6.53 | 
Cbz-D-Phe-Pro-.psi.(CH2 O)-BoroPhe-OPin [Example 102] | 6.83 | 
Cbz-D-Phe-Pro-.psi.(CO2)-BoroPhe-OPin [Example 88] | 6.89 | 
Cbz-D-Phe-Pro-.psi.(CO2)-boroethylglycine pinanediol [Example 85] | 6.57 | pKi (elastase; [2]): 7.06
Z-D,L-Dpa-(CO2)BoroMpgOPin [Example 109] | 6.36 | 
Z-D,L-Dpa-Pro-BoroPhe-OPin [reference compound] |  | pKi (human α-thrombin; [4]): 7.09
Z-D-Dpa-Pro(CO2)-L-BoroMpgOPin [Example 116] | 6.55 | 
Z-D-Dpa-Pro-(CH2 O)-L-BoroMpg-OPin [Example 173] | 5.62 | 
Z-D-Phe-ProBoroEtgOPin [reference compound] |  | pKi (elastase; [3]): 6.25; pKi (human α-thrombin; [4]): 6.00
